Assays:
[1] = test system: parent strain (SAWy518); assay: microbe, parasite or virus in culture; parameters: species or system Saccharomyces cerevisiae SAWy518; Off-target growth counter-screen, OD600 as per cent of untreated wells, strain lacking MCT1; settings: 18.5 h; sheet Primary Screen - final;; off-target growth of parent strain, about 18 h
Procedure: Cells were grown for 18 hours prior to OD measurement. Fill represents manual compound grouping based on compound class or target. OD600 is reported in Tecan units. […] The drug library used in this study for the initial screen and rescreen was provided by the Small Molecule Screening Center at Princeton University, through a collaboration with Dr. Hahn Kim. […] Follow-up analysis (IC50 determinations) on library compounds was performed using compounds purchased from outside sources. […] Stocks were then diluted 100-fold into media containing 0.01 OD600 inoculation of yeast, to achieve the final concentrations listed. Where compounds were added manually (for example 10 μM AZD3965 addition) stock concentrations were diluted by a factor of 100-fold regardless of scale, resulting in a final concentration of 1% v/v DMSO which is well tolerated by yeast.

[2] = test system: parent strain (SAWy518)

| Compound | viability at 10 µM [1] | OffScreen_percentage [2] | Offscreen_18hr [2] | Offscreen_24hr [2] | Offscreen_42hr [2] | Read_percentage [2] |
| --- | --- | --- | --- | --- | --- | --- |
| CCCc1c(-c2ccc(O)cc2)nn(-c2ccc(O)cc2)c1-c1ccc(O)cc1 | 99% | – | – | – | – | – |
| O=C1CC(c2ccc(O)cc2)Oc2ccccc21 (stereo not drawn) | 90.8% | – | – | – | – | – |
| O=C(/C=C/c1ccc(O)cc1)c1ccccc1 [4-hydroxychalcone] | 104% | – | – | – | – | – |
| N#Cc1c(O)c2c(-c3ccc(-c4ccccc4O)cc3)csc2[nH]c1=O [A-769662] | 102% | 102.02 percentage | 0.8233 | 0.9004 | 0.9609 | 102.02 percentage |
| CCOC(=O)[C@H](C)C[C@@H](Cc1ccc(-c2ccccc2)cc1)NC(=O)CCC(=O)O [AHU377] | 105% | 104.585 percentage | 0.844 | 0.9243 | 0.9874 | 104.585 percentage |
| COc1ccc([C@@H](C)C(=O)c2ccc(O)cc2O)cc1 [Angolesin] | 95.7% | 95.7373 percentage | 0.7726 | 0.8843 | 0.9388 | 95.7373 percentage |
| O=c1cc(-c2ccc(O)cc2)oc2cc(O)cc(O)c12 [Apigenin] | 96.1% | 96.0843 percentage | 0.7754 | 0.8699 | 0.9646 | 96.0843 percentage |
| CC(C)(C)CC(C)(C)c1ccc(OCCOCC[N+](C)(C)Cc2ccccc2)cc1 [Benzethonium] | 95.2% | 95.2045 percentage | 0.7683 | 0.892 | 0.9542 | 95.2045 percentage |
| COc1ccc(-c2coc3cc(O)cc(O)c3c2=O)cc1 [Biochanin A] | 98.1% | 98.1165 percentage | 0.7918 | 0.8858 | 0.9431 | 98.1165 percentage |
| O=C(/C=C/c1ccc(O)cc1)CC(=O)/C=C/c1ccc(O)cc1 [Bisdemethoxycurcumin] | 99.4% | 99.4424 percentage | 0.8025 | 0.8965 | 0.9569 | 99.4424 percentage |
| CCOc1nc2cccc(C(=O)OC(C)OC(=O)OC3CCCCC3)c2n1Cc1ccc(-c2ccccc2-c2nnn[nH]2)cc1 (stereo not drawn) [Candesartan Cilextil] | 98.1% | 98.0917 percentage | 0.7916 | 0.8922 | 0.95 | 98.0917 percentage |
| CC(C(=O)O)c1ccc2c(c1)[nH]c1ccc(Cl)cc12 (stereo not drawn) [Carprofen] | 90.2% | 90.223 percentage | 0.7281 | 0.8523 | 0.8964 | 90.223 percentage |
| CC(C)(Oc1ccc(C2CC2(Cl)Cl)cc1)C(=O)O (stereo not drawn) [Ciprofibrate] | 92.4% | 92.3916 percentage | 0.7456 | 0.866 | 0.9088 | 92.3916 percentage |
| C=CC(C1=CC(=O)C(OC)=CC1=O)c1ccc(O)cc1 (stereo not drawn) [DALBERGIONE, 4-METHOXY-4'-HYDROXY-] | 102% | – | – | – | – | – |
| C=CC(C1=CC(=O)C=CC1=O)c1ccccc1 (stereo not drawn) [Dalbergione] | 104% | 104.3 percentage | 0.8417 | 0.9214 | 0.9762 | 104.3 percentage |
| O=C(O)c1ccc(-n2nc(-c3ccccc3O)nc2-c2ccccc2O)cc1 [Deferasirox] | 96% | 95.9727 percentage | 0.7745 | 0.8724 | 0.9291 | 95.9727 percentage |
| COc1ccc2c(c1)OCc1c-2oc2cc(OC)ccc12 [Dehydrovariabilin] | 93.8% | 93.7794 percentage | 0.7568 | 0.8766 | 0.938 | 93.7794 percentage |
| N#CC(c1ccc(Cl)cc1)c1c(Cl)cc(-n2ncc(=O)[nH]c2=O)cc1Cl (stereo not drawn) [Diclazuril] | 92.7% | 92.7138 percentage | 0.7482 | 0.8733 | 0.9299 | 92.7138 percentage |

| Compound | viability at 10 µM [1] | OffScreen_percentage [2] | Offscreen_18hr [2] | Offscreen_24hr [2] | Offscreen_42hr [2] | Read_percentage [2] |
| --- | --- | --- | --- | --- | --- | --- |
| O=C(O)Cc1ccccc1Nc1c(Cl)cccc1Cl [Diclofenac] | 101% | – | – | – | – | – |
| C/C=C(/C(=C/C)c1ccc(O)cc1)c1ccc(O)cc1 [Dienestrol] | 99.3% | 99.2565 percentage | 0.801 | 0.8973 | 0.9599 | 99.2565 percentage |
| CC/C(=C(/CC)c1ccc(O)cc1)c1ccc(O)cc1 [Diethylstilbestrol] | 103% | 102.565 percentage | 0.8277 | 0.9171 | 0.9776 | 102.565 percentage |
| C[C@@H]1CC[C@@]2(OC1)O[C@H]1[C@@H](O)[C@H]3[C@@H]4CC[C@H]5C[C@@H](O[C@@H]6O[C@H](CO)[C@H](O[C@@H]7O[C@H](CO)[C@@H](O)[C@H](O[C@@H]8OC[C@@H](O)[C@H](O)[C@H]8O)[C@H]7O[C@@H]7O[C@H](CO)[C@H](O)[C@H](O[C@@H]8O[C@H](CO)[C@@H](O)[C@H](O)[C@H]8O)[C@H]7O)[C@H](O)[C@H]6O)[C@H](O)C[C@]5(C)[C@H]4CC[C@]3(C)[C@H]1[C@@H]2C [Digitonin] | 103% | 103.408 percentage | 0.8345 | 0.9181 | 0.9758 | 103.408 percentage |
| O=C1Nc2ccc(Cl)cc2[C@@](C#CC2CC2)(C(F)(F)F)O1 [Efavirenz] | 96.8% | 96.803 percentage | 0.7812 | 0.8701 | 0.9373 | 96.803 percentage |
| C=CCOC(Cn1ccnc1)c1ccc(Cl)cc1Cl (stereo not drawn) [Enilconazole] | 100% | 100.372 percentage | 0.81 | 0.8908 | 0.9485 | 100.372 percentage |
| O=C(O)c1ccccc1-c1c2cc(I)c(=O)c(I)c-2oc2c(I)c(O)c(I)cc12 [Erythrosine] | 101% | – | – | – | – | – |
| COc1cccc2c1[C@@H]1CN(CCCCn3c(=O)[nH]c4c(sc5ncc(-c6ccccc6)nc54)c3=O)C[C@@H]1CO2 [Fiduxosin] | 97.5% | 97.5341 percentage | 0.7871 | 0.8863 | 0.944 | 97.5341 percentage |
| OC(Cn1cncn1)(Cn1cncn1)c1ccc(F)cc1F [Fluconazole] | 99.6% | 99.6283 percentage | 0.804 | 0.8953 | 0.9483 | 99.6283 percentage |
| CC1(C)O[C@@H]2C[C@H]3[C@@H]4C[C@H](F)C5=CC(=O)C=C[C@]5(C)[C@H]4[C@@H](O)C[C@]3(C)[C@]2(C(=O)CO)O1 [Flunisolide] | 95.6% | 95.601 percentage | 0.7715 | 0.8893 | 0.9469 | 95.601 percentage |
| CCn1cc(-c2ccnc3[nH]c(-c4cccc(CN(C)C)c4)cc23)c(-c2ccc(NC(=O)N(C)C)cc2)n1 [GSK1070916] | 97.4% | 97.373 percentage | 0.7858 | 0.8818 | 0.9396 | 97.373 percentage |
| COc1ncc(-c2ccc3nccc(-c4ccnnc4)c3c2)cc1NS(=O)(=O)c1ccc(F)cc1F [GSK2126458] | 90.1% | 90.1487 percentage | 0.7275 | 0.8997 | 0.9503 | 90.1487 percentage |
| CC(Cc1ccc(O)c(O)c1)C(C)Cc1ccc(O)c(O)c1 (stereo not drawn) [Nordihydroguaiaretic_acid] | 101% | – | – | – | – | – |
| CN1C(C(=O)Nc2ccccn2)=C(O)c2ccccc2S1(=O)=O [Piroxicam] | 95.2% | – | – | – | – | – |
| O=c1c(O)c(-c2ccc(O)c(O)c2)oc2cc(O)cc(O)c12 [Quercetin] | 96.1% | – | – | – | – | – |
| CS(=O)(=O)c1ccc(C2=C(c3ccccc3)C(=O)OC2)cc1 [Rofecoxib] | 104% | – | – | – | – | – |
| CC1=C(CC(=O)O)c2cc(F)ccc2/C1=C\c1ccc([S+](C)[O-])cc1 (stereo not drawn) [Sulindac] | 103% | – | – | – | – | – |
| COCCN1C2=C(C(=O)c3ccccc3C2=O)N(Cc2cnccn2)C1C (stereo not drawn) [YM155] | 104% | – | – | – | – | – |

Reference: paper PMC11637378, “Optogenetic screening of MCT1 activity implicates a cluster of non-steroidal anti-inflammatory drugs (NSAIDs) as inhibitors of lactate transport” (PLOS ONE, 2024)
